Some results are limits rather than exact numbers.

Assay [1] has as its system JAK1/JAK2-dependent nuclear translocation of STAT1-GFP in HT1080 fibrosarcoma cells. The assay can be described thus: STAT1 nuclear translocation assay (Cellomics), IFN-γ stimulated HT1080 STAT1-GFP cells. To be noted: Homo sapiens, HT-1080, STAT1 translocation pathway. The assay is classed as cell-based. Summed up:
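HT1080 cells stably expressing STAT1-GFP, pre-treated 30 min with compound (10 μM–0.003 μM, 0.1% DMSO), then stimulated 2 h with 100 ng/ml IFN-γ, fixed and Hoechst-stained. Nuclear-cytoplasmic GFP differential imaged over ≥1000 cells/well, normalised to unstimulated and DMSO-stimulated wells for IC50.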

For another assay, the target named is T1, GST-JAK2(808-1132) (Homo sapiens, UniProt O60674).
T1 construct: GST-JAK2(808-1132); purchased Invitrogen (Carlsbad, USA) #4288
The assay can be described thus: JAK2 kinase assay (Caliper mobility shift, LabChip 3000). It is filed as biochemical. Summed up: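 Recombinant GST-JAK2(808-1132) kinase domain with FITC-labelled JAK3tide peptide substrate and ATP; 60 min at 30 °C, EDTA stop. Substrate/product ratio read by microfluidic mobility shift; compounds at 8 final concentrations, 10 to 0.003 μM.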

T1 sequence (O60674 808-1132): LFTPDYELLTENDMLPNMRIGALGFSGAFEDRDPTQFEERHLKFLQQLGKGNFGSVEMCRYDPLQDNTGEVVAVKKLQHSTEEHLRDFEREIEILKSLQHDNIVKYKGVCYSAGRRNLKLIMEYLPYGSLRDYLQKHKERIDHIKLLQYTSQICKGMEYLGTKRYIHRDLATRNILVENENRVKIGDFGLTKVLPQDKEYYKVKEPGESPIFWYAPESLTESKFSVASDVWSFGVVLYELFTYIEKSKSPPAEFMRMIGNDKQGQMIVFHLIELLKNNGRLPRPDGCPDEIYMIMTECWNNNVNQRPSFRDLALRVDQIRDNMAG

For the compound `O=C(c1ccc(Nc2ncc3ccn(-c4cc(F)c(CN5CCS(=O)(=O)CC5)c(F)c4)c3n2)cc1)N1CCOCC1` [Example 187, (4-{7-[4-(1,1-Dioxido-thiomorpholin-4-ylmethyl)-3,5-difluoro-phenyl]-7H-pyrrolo[2,3-d]pyrimidin-2-ylamino}-phenyl)-morpholin-4-yl-methanone], the half-inhibitory concentration (IC50) in assay [1] is 55 nM; at GST-JAK2(808-1132), less than 3 nM.
In the case of `CCN1CCN(Cc2ccc(Nc3ncc4ccn(-c5cc(F)c(CN6CCS(=O)(=O)CC6)c(F)c5)c4n3)cc2)CC1` [Example 188, {7-[4-(1,1-Dioxido-thiomorpholin-4-ylmethyl)-3,5-difluoro-phenyl]-7H-pyrrolo[2,3-d]pyrimidin-2-yl}-[4-(4-ethyl-piperazin-1-ylmethyl)-phenyl]-amine], the 50% inhibitory concentration (IC50) is 60 nM in assay [1] and less than 3 nM at GST-JAK2(808-1132).
For `CC(C)Oc1ccc(Nc2ncc3ccn(-c4ccc(CN5CCCC5)cc4)c3n2)cc1` [Example 107, (4-Isopropoxy-phenyl)-[7-(4-pyrrolidin-1-ylmethyl-phenyl)-7H-pyrrolo[2,3-d]pyrimidin-2-yl]-amine] the same measures were 1840 nM and 8.1 nM.
For `CCN1CCN(Cc2ccc(-n3ccc4cnc(Nc5ccc(F)c(C)c5)nc43)cc2F)CC1` [Example 124, {7-[4-(4-Ethyl-piperazin-1-ylmethyl)-3-fluoro-phenyl]-7H-pyrrolo[2,3-d]pyrimidin-2-yl}-(4-fluoro-3-methyl-phenyl)-amine] the same measures were 2160 nM and 85 nM.
For `CCN1CCN(Cc2ccc(Nc3ncc4ccn(-c5cc(F)c(C(=O)N6CCN(C)CC6)c(F)c5)c4n3)cc2)CC1` [Example 191, (4-{2-[4-(4-Ethyl-piperazin-1-ylmethyl)-phenylamino]-pyrrolo[2,3-d]pyrimidin-7-yl}-2,6-difluoro-phenyl)-(4-methyl-piperazin-1-yl)-methanone], in that order: 3920 nM and 28.5 nM.
Turning to `CC(C)Oc1ccc(Nc2ncc3ccn(-c4ccc(CN5CCOCC5)c(Cl)c4)c3n2)cc1` [Example 110, [7-(3-Chloro-4-morpholin-4-yl methyl-phenyl)-7H-pyrrolo[2,3-d]pyrimidin-2-yl]-(4-isopropoxy-phenyl)-amine], the IC50 came out at 1110 nM in assay [1] and 13.5 nM at GST-JAK2(808-1132).
For `CN1CCN(C(=O)Cc2cccc(Nc3ncc4ccn(-c5ccc(S(C)(=O)=O)cc5)c4n3)c2)CC1` [Example 70, 2-{3-[7-(4-Methanesulfonyl-phenyl)-7H-pyrrolo[2,3-d]pyrimidin-2-ylamino]-phenyl}-1-(4-methyl-piperazin-1-yl)-ethanone] the same measures were 275 nM and 5.6 nM.
For `CCN1CCN(C(=O)Cc2cccc(Nc3ncc4ccn(-c5cc(F)c(CN6CCOCC6)c(F)c5)c4n3)c2)CC1` [Example 172, 2-{3-[7-(3,5-Difluoro-4-morpholin-4-ylmethyl-phenyl)-7H-pyrrolo[2,3-d]pyrimidin-2-ylamino]-phenyl}-1-(4-ethyl-piperazin-1-yl)-ethanone], in that order: 220 nM and less than 3 nM.
For `CS(=O)(=O)c1ccc(-n2ccc3cnc(Nc4ccc(C(=O)N5CCOCC5)cc4)nc32)cc1` [Example 30, {4-[7-(4-Methanesulfonyl-phenyl)-7H-pyrrolo[2,3-d]pyrimidin-2-ylamino]-phenyl}-morpholin-4-yl-methanone], in that order: 204 nM and less than 3 nM.
As to `CCN1CCN(C(=O)C2(c3ccc(-n4ccc5cnc(Nc6ccc(C)c(C)c6)nc54)cc3)CC2)CC1` [Example 159, (1-{4-[2-(3,4-Dimethyl-phenylamino)-pyrrolo[2,3-d]pyrimidin-7-yl]-phenyl}-cyclopropyl)-(4-ethyl-piperazin-1-yl)-methanone], the figures for the IC50 (in assay [1]; on GST-JAK2(808-1132)) were 1120 nM and 46.5 nM, respectively.
For `COc1ccc(Nc2ncc3ccn(-c4ccc(C(=O)N5CCOCC5)c(F)c4)c3n2)cn1` [Example 225, {2-Fluoro-4-[2-(6-methoxy-pyridin-3-ylamino)-pyrrolo[2,3-d]pyrimidin-7-yl]-phenyl}-morpholin-4-yl-methanone] the same measures were 434 nM and 7.4 nM.
For `Cc1ccc(Nc2ncc3ccn(-c4cc(F)c(CN5CCS(=O)(=O)CC5)c(F)c4)c3n2)cc1C` [Example 290, (3,4-Dimethyl-phenyl)-{7-[4-(1,1-dioxido-thiomorpholin-4-ylmethyl)-3,5-difluoro-phenyl]-7H-pyrrolo[2,3-d]pyrimidin-2-yl}-amine], in that order: 37 nM and less than 3 nM.
For `CC(=O)c1ccc(-n2ccc3cnc(Nc4ccc(OC(C)C)cc4)nc32)cc1` [Example 86, 11-{4-[2-(4-Isopropoxy-phenylamino)-pyrrolo[2,3-d]pyrimidin-7-yl]-phenyl}-ethanone], in that order: 13000 nM and 8 nM.
As to `Cc1ccc(Nc2ncc3ccn(-c4ccc(CN5CCOCC5)cc4)c3n2)cc1C` [Example 160, (3,4-Dimethyl-phenyl)-[7-(4-morpholin-4-ylmethyl-phenyl)-7H-pyrrolo[2,3-d]pyrimidin-2-yl]-amine], the half-maximal inhibitory concentration (IC50) in assay [1] worked out at 973 nM; on GST-JAK2(808-1132), 41.8 nM.
For `COc1ccc(Nc2ncc3ccn(-c4ccc(C(=O)N5CCS(=O)(=O)CC5)cc4)c3n2)cn1` [Example 250, (1,1-Dioxido-thiomorpholin-4-yl)-{4-[2-(6-methoxy-pyridin-3-ylamino)-pyrrolo[2,3-d]pyrimidin-7-yl]-phenyl}-methanone], in that order: 940 nM and 9.1 nM.
Regarding `COCc1ccc(Nc2ncc3ccn(-c4ccc(C(=O)N5CCOCC5)cc4)c3n2)cc1` [Example 239, {4-[2-(4-Methoxymethyl-phenylamino)-pyrrolo[2,3-d]pyrimidin-7-yl]-phenyl}-morpholin-4-yl-methanone], the IC50 in assay [1] was 660 nM; at GST-JAK2(808-1132), 3.9 nM.
With `Cn1cc(Nc2ncc3ccn(-c4ccc(C(=O)N5CCOCC5)c(F)c4)c3n2)cn1` [Example 302, {2-Fluoro-4-[2-(1-methyl-1H-pyrazol-4-ylamino)-pyrrolo[2,3-d]pyrimidin-7-yl]-phenyl}-morpholin-4-yl-methanone], the results for the IC50 (in assay [1]; at GST-JAK2(808-1132)) were 85 nM and 6.1 nM, respectively.
For `Cc1cc(Nc2ncc3ccn(-c4ccc(C(=O)N5CCOCC5)c(Cl)c4)c3n2)ccc1F` [Example 90, {2-Chloro-4-[2-(4-fluoro-3-methyl-phenylamino)-pyrrolo[2,3-d]pyrimidin-7-yl]-phenyl}-morpholin-4-yl-methanone] the same measures were 715 nM and 3.4 nM.
On to `Cc1cc(-n2ccc3cnc(Nc4ccc(OC(C)C)cc4)nc32)ccc1CN1CCOCC1` [Example 111, (4-Isopropoxy-phenyl)-[7-(3-methyl-4-morpholin-4-ylmethyl-phenyl)-7H-pyrrolo[2,3-d]pyrimidin-2-yl]-amine], for which the IC50 came to 846 nM in assay [1] and 14.5 nM on GST-JAK2(808-1132).
For `COc1cc(Nc2ncc3ccn(-c4ccc(S(=O)(=O)NC(C)(C)C)cc4)c3n2)cc(OC)c1OC` [Example 8, N-tert-Butyl-4-[2-(3,4,5-trimethoxy-phenylamino)-pyrrolo[2,3-d]pyrimidin-7-yl]-benzenesulfonamide] the same measures were 32 nM and less than 3 nM.
For `CC(=O)N1CCN(Cc2c(F)cc(-n3ccc4cnc(Nc5ccc(F)c(C)c5)nc43)cc2F)CC1` [Example 133, 1-(4-{2,6-Difluoro-4-[2-(4-fluoro-3-methyl-phenylamino)-pyrrolo[2,3-d]pyrimidin-7-yl]-benzyl}-piperazin-1-yl)-ethanone] the same measures were 573 nM and 7.1 nM.
For `COc1ccc(Nc2ncc3ccn(-c4ccc(C(=O)N5CCOCC5)cc4)c3n2)cn1` [Example 234, {4-[2-(6-Methoxy-pyridin-3-ylamino)-pyrrolo[2,3-d]pyrimidin-7-yl]-phenyl}-morpholin-4-yl-methanone] the same measures were 910 nM and 8.1 nM.
For the compound `Cc1ccc(Nc2ncc3ccn(-c4cc(F)c(CN5CCN(C)CC5)c(F)c4)c3n2)cc1C` [Example 304, {7-[3,5-Difluoro-4-(4-methyl-piperazin-1-ylmethyl)-phenyl]-7H-pyrrolo[2,3-d]pyrimidin-2-yl}-(3,4-dimethyl-phenyl)-amine], the half-inhibitory concentration (IC50) in assay [1] was 1480 nM; on GST-JAK2(808-1132), 13.5 nM.
In the case of `Cc1ccc(Nc2ncc3ccn(-c4ccc(S(C)(=O)=O)cc4)c3n2)cc1CN1CCNCC1` [Example 333, [7-(4-Methanesulfonyl-phenyl)-7H-pyrrolo[2,3-d]pyrimidin-2-yl]-(4-methyl-3-piperazin-1-ylmethyl-phenyl)-amine], the 50% inhibitory concentration (IC50) in assay [1] amounted to 530 nM; at GST-JAK2(808-1132) it was 3.9 nM.
For `CC(C)Oc1ccc(Nc2ncc3ccn(-c4ccc(N5CCCC5=O)cc4)c3n2)cc1` [Example 105, 1-{4-[2-(4-Isopropoxy-phenylamino)-pyrrolo[2,3-d]pyrimidin-7-yl]-phenyl}-pyrrolidin-2-one], in that order: 5840 nM and 11.5 nM.
For `CN1CCN(C(=O)c2ccc(Nc3ncc4ccn(-c5cc(F)c(CN6CCOCC6)c(F)c5)c4n3)cc2C(F)(F)F)CC1` [Example 201, {4-[7-(3. 5-Difluoro-4-morpholin-4-ylmethyl-phenyl)-7H-pyrrolo[2,3-d]pyrimidin-2-ylamino]-2-trifluoromethyl-phenyl}-(4-methyl-piperazin-1-yl)-methanone] the same measures were 199 nM and less than 3 nM.
For `CCOc1ccc(Nc2ncc3ccn(-c4ccc(S(C)(=O)=O)cc4)c3n2)cc1OCC` [Example 1, (3,4-Diethoxy-phenyl)-[7-(4-methanesulfonyl-phenyl)-7H-pyrrolo[2,3-d]pyrimidin-2-yl]-amine], in that order: 43.5 nM and less than 3 nM.

As a reminder, the IC50 is the concentration that inhibits the measured activity by half.
